The source of these data is publication PMC13114712, “The Influence of TDP1 Inhibitor Usnic Acid Derivative OL9-116 on the Effects of Topotecan in Human Cells” (Current Issues in Molecular Biology, 2026).

In series [1] the target is T1, Δ148TDP1 (Homo sapiens, UniProt Q9NUW8).
T1 construct: gene TDP1; Δ148TDP1, truncated form lacking the first 148 N-terminal amino acid residues (recombinant from E. coli)
The series can be described thus: real-time fluorimetric assay with FAM/BHQ1 oligonucleotide. The class given is biochemical.

In series [2] the target is T2, Tyrosyl-DNA phosphodiesterase 1 (TDP1) (Homo sapiens, UniProt Q9NUW8).
T2 construct: TDP1 wild type (full-length, recombinant from E. coli, pLate31-TDP1)
The series can be described thus: real-time fluorimetric assay with FAM/BHQ1 oligonucleotide; V(S) kinetics; EMSA and fluorescence anisotropy show no DNA competition. The series is classed as biochemical.

Series [3] deals with TDP1 (wild type) (Homo sapiens, UniProt Q9NUW8 1-608). The series can be described thus: EMSA; no inhibitor; 0.5 uM TDP1, 0.1 uM DNA; two complexes (1:1 and 2:1); 50 mM Tris-HCl pH 8.0, 50 mM NaCl, 7 mM beta-mercaptoethanol; EMSA 10 min at 4 C, 5% PAGE in 0.3x TBE; anisotropy temperature not stated. The settings on record: protein: recombinant; label: 5'-(5,6)-FAM; single strand. (Mobility shift assays separate free from complexed probe on a gel.)

One may read the IC50 as the concentration that gives 50% inhibition. Low readings indicate higher potency, high ones lower potency.

Sequence of TDP1 (wild type) (Q9NUW8 whole entry): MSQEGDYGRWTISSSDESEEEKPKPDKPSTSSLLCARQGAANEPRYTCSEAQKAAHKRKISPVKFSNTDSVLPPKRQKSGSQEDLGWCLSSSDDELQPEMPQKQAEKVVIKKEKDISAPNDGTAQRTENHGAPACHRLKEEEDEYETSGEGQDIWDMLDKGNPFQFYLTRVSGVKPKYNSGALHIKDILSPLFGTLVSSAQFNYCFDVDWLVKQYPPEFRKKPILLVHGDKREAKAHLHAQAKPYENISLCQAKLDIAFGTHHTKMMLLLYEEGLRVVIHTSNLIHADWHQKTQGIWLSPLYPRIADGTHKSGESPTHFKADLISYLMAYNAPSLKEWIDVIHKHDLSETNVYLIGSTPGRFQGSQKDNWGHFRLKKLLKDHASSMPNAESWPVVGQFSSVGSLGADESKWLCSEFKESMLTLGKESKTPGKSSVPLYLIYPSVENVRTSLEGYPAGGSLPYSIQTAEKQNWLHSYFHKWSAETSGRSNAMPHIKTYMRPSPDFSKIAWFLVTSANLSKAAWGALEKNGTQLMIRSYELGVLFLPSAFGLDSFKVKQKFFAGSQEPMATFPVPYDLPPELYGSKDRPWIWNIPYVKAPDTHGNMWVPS
T2 sequence (Q9NUW8 whole entry): as above
T1 sequence (Q9NUW8 149-608, stated change not applied): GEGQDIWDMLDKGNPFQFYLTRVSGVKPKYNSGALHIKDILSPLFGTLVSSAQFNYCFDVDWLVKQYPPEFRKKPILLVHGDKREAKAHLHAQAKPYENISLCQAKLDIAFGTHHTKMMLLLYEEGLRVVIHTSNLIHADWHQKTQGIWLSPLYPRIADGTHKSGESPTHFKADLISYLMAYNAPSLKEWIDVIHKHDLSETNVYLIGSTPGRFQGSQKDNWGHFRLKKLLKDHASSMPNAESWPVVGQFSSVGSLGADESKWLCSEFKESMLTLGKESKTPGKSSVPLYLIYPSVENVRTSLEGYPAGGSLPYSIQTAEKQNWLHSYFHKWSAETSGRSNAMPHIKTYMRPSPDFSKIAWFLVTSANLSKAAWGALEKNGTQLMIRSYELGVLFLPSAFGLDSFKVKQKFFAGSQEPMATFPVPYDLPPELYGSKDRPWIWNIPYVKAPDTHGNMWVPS

Turning to `CC(=O)c1c(O)c(C)c(O)c2c1OC1=CC(=O)C(=C(C)NCCCc3cc(C(C)(C)C)c(O)c(C(C)(C)C)c3)C(=O)C12C` (stereo not drawn) [OL9-116], the results for the IC50 in series [1] and in series [2] were 3.8 ± 0.8 µM and 1.4 ± 0.4 µM, respectively.

Take AACGTCAGGGTCTTCC (ssDNA) [5'-FAM 16-mer oligonucleotide]: the binding result in series [3] is on record as “binds”.
